# According to PubChem BioAssay AID720609 (Broad Institute, 2013):
# System: HeLa viability, CellTiter-Glo ATP luminescence, 8-48 h
# Test: cytotoxicity in HeLa cervical cancer cells – cell-based, CellTiter-Glo ATP luminescence, 8-48 h, dry powder, mechanism study for HRAS target identification, late-stage follow-up (AID 720609)
Compound,AC50 (measured here: AC50 at 24 h),AC50 (measured here: AC50 at 8 h),AC50 (measured here: AC50 at 48 h)
CCC(=O)N(c1ccc(OC)c(Cl)c1)C(C(=O)NCCc1ccccc1)c1cccs1 (stereo not drawn),> 70000 nM,,
COc1ccc(N(C(=O)CCl)C(C(=O)NCCc2ccccc2)c2cccs2)cc1Cl (stereo not drawn),323 nM,725 nM,699 nM
CC(C)(C)OC(=O)NCCOCCOCCOc1ccc(N(C(=O)CCl)C(C(=O)NCCc2ccccc2)c2cccs2)cc1Cl (stereo not drawn),564 nM,515 nM,946 nM
COC(=O)c1ccc([C@@H]2c3[nH]c4ccccc4c3C[C@@H](C(=O)OC)N2C(=O)CCl)cc1,609 nM,512 nM,602 nM
C#CCCCC(=O)NCCOCCOCCOc1ccc(N(C(=O)CCl)C(C(=O)NCCc2ccccc2)c2cccs2)cc1Cl (stereo not drawn),3100 nM,6100 nM,4790 nM
